# Measurements as given in PubChem BioAssay (NCI).
# Where “and” joins values, the source holds several entries; their conditions need not be identical. Equal entries are not always repeated.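 Tested at 5 concentrations; 48 h exposure; 96-well plates; endpoints linearly interpolated, else capped at highest concentration. GI50: concentration for 50% inhibition of growth. At the TGI there is no net growth.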
# Tests used:
# Assay in all cases: NCI tumour cell line growth inhibition, 48 h
# [1] = system: MDA-N
# [2] = system: RXF-631 renal
# [3] = system: M19-MEL melanoma
# [4] = system: DMS 273 small cell lung
# [5] = system: KM20L2 colon
# [6] = system: XF 498 CNS
# [7] = system: LXFL 529 NSCLC
# [8] = system: DLD-1 colon
# [9] = system: DMS 114 small cell lung
# [10] = system: P388 leukemia
# [11] = system: P388/ADR leukemia
Structure (SMILES),TGI [1],TGI [2],TGI [3],TGI [4],TGI [5],TGI [6],TGI [7],TGI [8],TGI [9],other results
CCCC(=O)OCC1OC(n2cc(F)c(=O)[nH]c2=O)CC1OC(=O)CCC (stereo not drawn),> 10 µM,,,,,,,,,
CC1(Cl)C(=O)NC(=O)N([C@H]2C[C@H](O)[C@@H](CO)O2)C1N=[N+]=[N-] (stereo partly drawn),,> 100 µM,> 100 µM,> 100 µM,> 100 µM,> 100 µM,> 100 µM,> 100 µM,> 100 µM,
CC(=O)OC1(Sc2ccccc2)CC2[C@H]3COC(C)(C)O[C@H]3CC[C@@]2(C)CC1=O (stereo partly drawn),,> 100 µM,> 100 µM,> 100 µM,> 100 µM,57.3 µM,> 100 µM,> 100 µM,> 100 µM,
CC(C)(C)C1=CC(=N/N=c2\scc(-c3ccccc3)n2Cc2ccccc2)C=C(C(C)(C)C)C1=O,,,> 100 µM,> 100 µM,> 100 µM,> 100 µM,> 100 µM,,> 100 µM,
O=C(NCCCN1CCN(CCCNC(=O)c2cccc3ccccc23)CC1)c1cccc2ccccc12,,> 100 µM,> 100 µM,,73.5 µM,93.9 µM,> 100 µM,,> 100 µM,
N.N.N.N.N#N.N#N.[Cl-].[Os+6],,,,> 100 µM,> 100 µM,,> 100 µM,> 100 µM,,GI50 [4]: > 100 µM; GI50 [5]: > 100 µM; GI50 [7]: > 100 µM; GI50 [8]: > 100 µM
S=C1SCC2CCCN12 (stereo not drawn),,> 100 µM,> 100 µM,> 100 µM,> 100 µM,,> 100 µM,> 100 µM,> 100 µM,
O=C(c1ccccc1)c1nc2c(Cl)ccc(Cl)c2cc1C(Br)Br,,3.86 µM,6.26 µM,3.14 µM,2.51 µM,2.29 µM,1.55 µM,2.24 µM,6.19 µM,
COc1ccc2[nH]c3c(C)c4c(c(C)c3c2c1)CN(C)C=C4,34.6 µM,,5.53 µM,10.3 µM,21.1 µM,5.78 µM,3.61 µM,32.2 µM,3.05 µM,
O=C1OC(c2ccc([N+](=O)[O-])cc2)=N/C1=C\c1ccc(Cl)cc1,> 100 µM,,,,,,,,,
COCN1COCN(C)C1=O,,,> 100 µM,> 100 µM,> 100 µM,> 100 µM,,> 100 µM,> 100 µM,
Cc1[nH]n(-c2nc(-c3ccccc3)cc(=O)[nH]2)c(=O)c1CCO,> 100 µM,,,,,,,,,
O=C(CC1(O)C(=O)Nc2ccccc21)c1ccc(Cl)c(Cl)c1 (stereo not drawn),,,> 100 µM,> 100 µM,> 100 µM,,> 100 µM,> 100 µM,> 100 µM,
CC(C)(C)c1cc(C2c3cc4c(cc3OC(O)(CO)C2C(=O)O)OCO4)cc(C(C)(C)C)c1O (stereo not drawn) (tested in a mixture with another compound),,43.3 µM,28.6 µM,41 µM,33.4 µM,,,33.2 µM,23.8 µM,
N#CN1CC[C@@H]2CC3(CCC2C1)OCCO3 (stereo partly drawn),,> 100 µM,> 100 µM,> 100 µM,> 100 µM,> 100 µM,> 100 µM,> 100 µM,> 100 µM,
COc1ccc(C2=C(OC(C)=O)c3cccn3-c3ccc(Cl)cc3S2)cc1,4.51 µM,,,,,,,,,
O=C(c1ccc(Cl)cc1Cl)N1CCN(C(=O)c2ccc(Cl)cc2Cl)C1=S,43.8 µM,,,,,,,,,GI50 [1]: 20 µM
CN(C)CCCNc1ccnc2c([N+](=O)[O-])cccc12,,,5.82 µM,32.8 µM,16.7 µM,28.2 µM,,,5.56 µM,
CC1=CC(=O)NP(=O)(Oc2ccc(Cl)cc2)N1 (stereo not drawn),,,> 100 µM,> 100 µM,> 100 µM,> 100 µM,> 100 µM,> 100 µM,> 100 µM,
N[C@H]1CCC[C@@H](O)C1O (stereo partly drawn),> 100 µM,,,,,,,,,
COC(=O)NC1(NC(=O)OC)NC(=O)c2ccccc2N1,> 100 µM,,,,,,,,,
CCC/C=C/C=C/C(=O)OC1/C(=C/C(=O)OC)CC2CC(C(C)O)OC(=O)CC(O)CC3CC(OC(C)=O)C(C)(C)C(O)(CC4C/C(=C/C(=O)OC)CC(/C=C/C(C)(C)C1(O)O2)O4)O3 (stereo not drawn),11 µM and > 12.5 µM,,> 10.9 µM and 11 µM,> 10.9 µM and 11 µM,> 10.9 µM and 11 µM,11 µM,,> 10.9 µM and 11 µM,> 10.9 µM and 8.97 µM,GI50 [3]: > 10.9 µM and 7.88 µM; GI50 [5]: > 10.9 µM and 6.51 µM; GI50 [10]: 9.73 µM; TGI [10]: 10.9 µM and 11 µM; GI50 [6]: 4.43 µM; GI50 [1]: > 12.5 µM; GI50 [9]: > 10.9 µM and 2.92 µM; TGI [11]: 10.9 µM and 11 µM
CCOC(=O)c1ccc(N=Cc2ccc(N(CCC#N)S(=O)(=O)c3ccccc3)cc2C)cc1,,> 100 µM,> 100 µM,> 100 µM,> 100 µM,> 100 µM,> 100 µM,> 100 µM,> 100 µM,
Cc1nc(-n2nc(-c3ccccc3)cc2-c2ccccc2)sc1C(=O)CC(=O)C(=O)Nc1ccc(Cl)c(Cl)c1,,> 100 µM,> 100 µM,> 100 µM,> 100 µM,,> 100 µM,> 100 µM,> 100 µM,
Nc1nc(N)nc(CCCCc2nc(N)nc(N)n2)n1,> 100 µM,,,,,,,,,

Structure (SMILES),TGI [1],TGI [2],TGI [3],TGI [4],TGI [5],TGI [6],TGI [7],TGI [8],TGI [9],other results
C=C1C(=O)OC2CC1C(OC(=O)/C=C/c1ccccc1)C/C(C)=C/CC/C(C)=C/CCC2(C)O (stereo not drawn),2.67 µM,,,,,,,,,
COc1ccc2nc3cc(Cl)ccc3c(Sc3ccc(N)cc3)c2c1,,34.4 µM,20.2 µM,23.5 µM,17.9 µM,27.5 µM,16 µM,19.8 µM,19 µM,
CC(=O)/C=C1\CC(=O)N(C)c2ccccc2N1,,,> 100 µM,> 100 µM,,> 100 µM,> 100 µM,22.9 µM,64.3 µM,
O=C(O)CCC(O)=C1S(=O)(=O)OCCOS1(=O)=O,> 100 µM,,> 100 µM,> 100 µM,> 100 µM,,> 100 µM,> 100 µM,> 100 µM,
COc1ccc2c(c1OC)C(=O)C2,,,> 100 µM,> 100 µM,> 100 µM,> 100 µM,> 100 µM,,> 100 µM,
Cn1c(=O)nc2n(-c3ccc(Br)cc3)c3ccccc3nc-2c1=O,,29.8 µM,2.93 µM,14 µM,8.74 µM,25 µM,25.4 µM,36.3 µM,4.39 µM,
Cc1nc2ccccc2c(=O)n1/N=C(\N=Nc1ccc(Cl)cc1)c1cccc(-c2ccco2)c1,,,> 100 µM,> 100 µM,> 100 µM,,> 100 µM,> 100 µM,,
Nc1n[n+]([O-])c2ccc(Cl)cc2[n+]1[O-],73.5 µM,,,,,,,,,
O=C1c2ccccc2C(=O)N1c1ccc(Cc2ccc(N3C(=O)c4ccccc4C3=O)cc2)cc1,> 100 µM,,,,,,,,,
COc1ccccc1/C=C1\C(=O)N(C(=O)Cc2ccccc2)N=C1C,,,> 100 µM,> 100 µM,,> 100 µM,,> 100 µM,> 100 µM,
O=C1CCCC2=C1CC1=C(CCCC1=O)N2c1ccc(Cl)cc1,> 100 µM,,,,,,,,,
C=CC[P@]1(=O)O[C@H](c2ccccc2)C(C)N1C(C)C (stereo partly drawn),,> 100 µM,> 100 µM,,> 100 µM,> 100 µM,> 100 µM,> 100 µM,> 100 µM,
O=C1NC(c2ccccc2)(c2ccccc2)C(=O)N1CCCCCCN1C(=O)NC(c2ccccc2)(c2ccccc2)C1=O,,,> 100 µM,> 100 µM,> 100 µM,30.9 µM,> 100 µM,> 100 µM,> 100 µM,
O=S(=O)(F)Cc1ccccc1,> 100 µM,,,,,,,,,
COC1CCCc2c(OC(C)=O)ccc(OC(C)=O)c21 (stereo not drawn),,,,,> 100 µM,,> 100 µM,,> 100 µM,
COc1ccc2c(=O)c(-c3cc(OC)c(OC)cc3OC)coc2c1,> 100 µM,> 100 µM,> 100 µM,> 100 µM,,8.07 µM,> 100 µM,> 100 µM,> 24.6 µM,
NC(CSC(c1ccccc1)(c1ccccc1)c1ccccc1)C(=O)O (stereo not drawn),12.5 µM,,117 µM,1.55 µM,5.47 µM,7.77 µM,,125 µM,,GI50 [3]: 5.07 µM; TGI [10]: 38.8 µM; GI50 [6]: 0.711 µM and 0.959 µM; GI50 [8]: 0.831 µM; TGI [11]: 125 µM
NCC(=O)Nc1ccc(Cl)cc1C(=O)c1ccc[nH]1,> 100 µM,,,,,,,,,
O=C(O)/C=C/c1c2ccc(=O)c(O)c-2oc2c(O)c(O)ccc12,34.5 µM,,,,,,,,,
COc1ccc(-c2cc(=O)c3c(O)c(O)c(OC)cc3o2)cc1O,,> 100 µM,> 100 µM,> 100 µM,> 100 µM,> 100 µM,> 100 µM,> 100 µM,,
COc1ccc2nc3cc(Cl)ccc3c(Nc3ccccc3-c3ccccc3Nc3c4ccc(Cl)cc4nc4ccc(OC)cc34)c2c1,24.7 µM,> 100 µM,> 93.3 µM,> 54.9 µM,> 81.4 µM,> 76.2 µM,> 50.5 µM,> 47.3 µM,,
CCN(Cc1cc(Cl)cc(C)c1O)Cc1c(O)ccc2ccccc12,35.8 µM,,,,,,,,,
Cc1cccc(NC(=O)c2c(N)[n+]([O-])c3ccccc3[n+]2[O-])c1,,3.24 µM,23.8 µM,22.1 µM,30.5 µM,24.5 µM,22.9 µM,26 µM,,
O=CNC(Cc1cnc[nH]1)C(=O)O (stereo not drawn),> 100 µM,,,,,,,,,
